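1) Cells in 96-well plates. 2) Compound, 48 h, 5 concentrations. 3) Linear interpolation between surrounding doses. 4) Unreached endpoint = highest concentration. Here, GI50 denotes the concentration required for 50% inhibition of growth.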 Active and inactive are the calls of the source. No stated cut-off is given here; in the data, active = GI50 up to about 1.1 µM and inactive = higher.
What was measured:
Assay in all cases: inhibition of tumour cell growth, NCI panel, 48 h
A498 = system: A498
CCRF-CEM = system: CCRF-CEM
COLO 205 = system: COLO 205
IGROV-1 = system: IGROV-1
K562 = system: K562
LOX IMVI = system: LOX IMVI
MDA-MB-231 = system: MDA-MB-231
MDA-MB-435 = system: MDA-MB-435
MDA-N = system: MDA-N
NCI-H226 = system: NCI-H226
NCI-H522 = system: NCI-H522
NCI/ADR-RES = system: NCI/ADR-RES
OVCAR-8 = system: OVCAR-8
SK-MEL-28 = system: SK-MEL-28
SK-MEL-2 = system: SK-MEL-2
SNB-19 = system: SNB-19
SR = system: SR
SW-620 = system: SW-620
TK-10 = system: TK-10
UACC-62 = system: UACC-62

SMILES | GI50 (A498) | GI50 (CCRF-CEM) | GI50 (COLO 205) | GI50 (IGROV-1) | GI50 (K562) | GI50 (LOX IMVI) | GI50 (MDA-MB-231) | GI50 (MDA-MB-435) | GI50 (MDA-N) | GI50 (NCI-H226) | GI50 (NCI-H522) | GI50 (NCI/ADR-RES) | GI50 (OVCAR-8) | GI50 (SK-MEL-28) | GI50 (SK-MEL-2) | GI50 (SNB-19) | GI50 (SR) | GI50 (SW-620) | GI50 (TK-10) | GI50 (UACC-62)
c1ccc(CNCCCNCCCCNCCCNCc2ccccc2)cc1 | > 10 µM (inactive) | 1.86 µM (inactive) | 1.82 µM (inactive) | 1.93 µM (inactive) | 1.67 µM (inactive) | 3.15 µM (inactive) | 6.5 µM (inactive) | 4.22 µM (inactive) | 1.83 µM (inactive) | 4.68 µM (inactive) | 1.57 µM (inactive) | 38.7 µM (inactive) | 12.8 µM (inactive) | 12.1 µM (inactive) | 14.7 µM (inactive) | 13.2 µM (inactive) | 3.39 µM (inactive) | 1.8 µM (inactive) | 5.69 µM (inactive) | 6.59 µM (inactive)
CCCCn1c(CSc2ccc(Cl)cc2)c(C(=O)OCC)c2cc(OC)c(Br)cc21 | > 100 µM (inactive) | > 100 µM (inactive) | > 100 µM (inactive) | > 100 µM (inactive) | > 100 µM (inactive) | > 100 µM (inactive) | > 100 µM (inactive) | > 100 µM (inactive) | > 100 µM (inactive) | > 100 µM (inactive) | > 100 µM (inactive) | > 100 µM (inactive) | > 100 µM (inactive) | > 100 µM (inactive) | > 100 µM (inactive) | > 100 µM (inactive) | 88.7 µM (inactive) | > 100 µM (inactive) | > 100 µM (inactive) | > 100 µM (inactive)
CC(C)(C)/C(O)=C\c1nc2ccc(C(F)(F)F)cc2[nH]c1=O | > 100 µM (inactive) | > 100 µM (inactive) | > 100 µM (inactive) | > 100 µM (inactive) | > 100 µM (inactive) | > 100 µM (inactive) | > 100 µM (inactive) | > 100 µM (inactive) | > 100 µM (inactive) | > 100 µM (inactive) | > 100 µM (inactive) | > 100 µM (inactive) | > 100 µM (inactive) | > 100 µM (inactive) | > 100 µM (inactive) | > 100 µM (inactive) | > 100 µM (inactive) | > 100 µM (inactive) | > 100 µM (inactive) | > 100 µM (inactive)
CN(C)c1ccc(C(=O)NCCCCCCC(=O)NO)cc1 | 0.711 µM (active) | 0.238 µM (active) | 0.33 µM (active) | 0.553 µM (active) | 0.337 µM (active) | 0.272 µM (active) | 0.697 µM (active) | 0.264 µM (active) | 0.233 µM (active) | 2.75 µM (inactive) | 0.11 µM (active) | 0.14 µM (active) | 0.153 µM (active) | 0.434 µM (active) | 0.19 µM (active) | 2 µM (inactive) | 0.205 µM (active) | 0.312 µM (active) | 0.33 µM (active) | 0.275 µM (active)
CCN(CC)c1c(-c2c(OC(C)C)c(=O)c2=O)c(=O)n2ccsc2c1OC(C)=O | > 100 µM (inactive) | > 100 µM (inactive) | > 100 µM (inactive) | 89.9 µM (inactive) | > 100 µM (inactive) | > 100 µM (inactive) | > 100 µM (inactive) | > 100 µM (inactive) | > 100 µM (inactive) | > 100 µM (inactive) | 17.5 µM (inactive) | > 100 µM (inactive) | > 100 µM (inactive) | > 100 µM (inactive) | > 100 µM (inactive) | > 100 µM (inactive) | > 100 µM (inactive) | > 100 µM (inactive) | > 100 µM (inactive) | > 100 µM (inactive)
COC(OC)C1OCC(n2cc(F)c(=O)[nH]c2=O)C1O (stereo not given) | > 100 µM (inactive) | > 100 µM (inactive) | > 100 µM (inactive) | > 100 µM (inactive) | > 100 µM (inactive) | > 100 µM (inactive) | > 100 µM (inactive) | > 100 µM (inactive) | > 100 µM (inactive) | > 100 µM (inactive) | > 100 µM (inactive) | > 100 µM (inactive) | > 100 µM (inactive) | > 100 µM (inactive) | > 100 µM (inactive) | > 100 µM (inactive) | > 100 µM (inactive) | > 100 µM (inactive) | > 100 µM (inactive) | > 100 µM (inactive)
O=C(CNc1ccc([N+](=O)[O-])cc1)Nn1c(-c2ccccc2)nc2ccccc2c1=O | 7.01 µM (inactive) | 0.811 µM (active) | 2.28 µM (inactive) | 3.64 µM (inactive) | 1.91 µM (inactive) | 0.841 µM (active) | 3.52 µM (inactive) | 3.96 µM (inactive) | 3.49 µM (inactive) | 4.69 µM (inactive) | 1.72 µM (inactive) | 2.33 µM (inactive) | 4.24 µM (inactive) | 3.25 µM (inactive) | 2.15 µM (inactive) | 8.75 µM (inactive) | 3.1 µM (inactive) | 2.39 µM (inactive) | 6.15 µM (inactive) | 1.32 µM (inactive)
CN/C(N)=N/N=C1/C(=O)Nc2ccccc21 | > 100 µM (inactive) | > 100 µM (inactive) | > 100 µM (inactive) | > 100 µM (inactive) | > 100 µM (inactive) | > 100 µM (inactive) | > 100 µM (inactive) | > 100 µM (inactive) | > 100 µM (inactive) | > 100 µM (inactive) | > 100 µM (inactive) | > 100 µM (inactive) | > 100 µM (inactive) | > 100 µM (inactive) | > 100 µM (inactive) | > 100 µM (inactive) | > 100 µM (inactive) | > 100 µM (inactive) | > 100 µM (inactive) | > 100 µM (inactive)
COc1ccc2c(c1)O[C@@H]1[C@@H](OC3OC(CO)C(O)C(O)C3O)Oc3cc(OC)c(OC)cc3[C@]1(O)C2=O (stereo not given in full) | > 100 µM (inactive) | > 100 µM (inactive) | > 100 µM (inactive) | > 100 µM (inactive) | > 100 µM (inactive) | > 100 µM (inactive) | > 100 µM (inactive) | > 100 µM (inactive) | > 100 µM (inactive) | 34 µM (inactive) | > 100 µM (inactive) | > 100 µM (inactive) | > 100 µM (inactive) | 25.8 µM (inactive) | > 100 µM (inactive) | > 100 µM (inactive) | > 100 µM (inactive) | 17.5 µM (inactive) | > 100 µM (inactive) | > 100 µM (inactive)
O=C1/C(=C\c2ccco2)Oc2ccccc21 | > 100 µM (inactive) | > 100 µM (inactive) | > 100 µM (inactive) | 99.1 µM (inactive) | > 100 µM (inactive) | > 100 µM (inactive) | > 100 µM (inactive) | > 100 µM (inactive) | > 100 µM (inactive) | > 100 µM (inactive) | > 100 µM (inactive) | > 100 µM (inactive) | > 100 µM (inactive) | > 100 µM (inactive) | > 100 µM (inactive) | > 100 µM (inactive) | 55.2 µM (inactive) | > 100 µM (inactive) | > 100 µM (inactive) | > 100 µM (inactive)
C[n+]1c2ccccc2c(CNC(CCC(N)=O)C(=O)O)c2ccccc21 (stereo not given) | 0.6 µM (active) | 0.366 µM (active) | 0.525 µM (active) | 4.15 µM (inactive) | 0.34 µM (active) | 1.94 µM (inactive) | 5.36 µM (inactive) | 2.55 µM (inactive) | 2.87 µM (inactive) | 8.3 µM (inactive) | 1.57 µM (inactive) | 4.56 µM (inactive) | 3.39 µM (inactive) | 5.96 µM (inactive) | 4.76 µM (inactive) | 6.18 µM (inactive) | 1.07 µM (active) | 0.506 µM (active) | 1.53 µM (inactive) | 2.23 µM (inactive)
CSc1nc(C)cc(Nc2ccc(O)c(CN3CCOCC3)c2)n1 | > 100 µM (inactive) | > 100 µM (inactive) | > 100 µM (inactive) | > 100 µM (inactive) | > 100 µM (inactive) | > 100 µM (inactive) | > 100 µM (inactive) | > 100 µM (inactive) | > 100 µM (inactive) | > 100 µM (inactive) | > 100 µM (inactive) | > 100 µM (inactive) | > 100 µM (inactive) | > 100 µM (inactive) | > 100 µM (inactive) | > 100 µM (inactive) | > 100 µM (inactive) | > 100 µM (inactive) | > 100 µM (inactive) | > 100 µM (inactive)
Cc1ccc2c(n1)C(=O)C=CC2=O | 16.8 µM (inactive) | 1.17 µM (inactive) | 2.14 µM (inactive) | 14.7 µM (inactive) | 3.1 µM (inactive) | 4.88 µM (inactive) | 4.72 µM (inactive) | 17.2 µM (inactive) | 7.4 µM (inactive) | 19.6 µM (inactive) | 1.91 µM (inactive) | 18.1 µM (inactive) | 15.1 µM (inactive) | 3.56 µM (inactive) | 16.7 µM (inactive) | 18 µM (inactive) | 3.24 µM (inactive) | 3 µM (inactive) | 2.52 µM (inactive) | 13.7 µM (inactive)
O=C(O)C1C(C(=O)O)C(C(=O)O)C1C(=O)O (stereo not given) | > 100 µM (inactive) | > 100 µM (inactive) | > 100 µM (inactive) | > 100 µM (inactive) | > 100 µM (inactive) | > 100 µM (inactive) | > 100 µM (inactive) | > 100 µM (inactive) | > 100 µM (inactive) | > 100 µM (inactive) | > 100 µM (inactive) | > 100 µM (inactive) | > 100 µM (inactive) | > 100 µM (inactive) | > 100 µM (inactive) | > 100 µM (inactive) | 28.9 µM (inactive) | > 100 µM (inactive) | > 100 µM (inactive) | > 100 µM (inactive)
